The values below come from US11834453B2, “Substituted pyrimido[5,4-d]pyrimidines as HER2 inhibitors” (Array BioPharma Inc., priority 2020, dated 2023).

The target in data set [1] is ErbB2 insYVMA (HER2-YVMA, SEQ ID NO: 2) (Homo sapiens, UniProt P04626, INS775YVMA/P1170A). In words: biochemical. Particulars: ErbB2 insYVMA enzyme assay.
The target of data set [2] is ErbB2 WT (Homo sapiens (Human), UniProt P04626). In words: ErbB enzyme assay (CisBio HTRF KinEASE-TK), Assay 2. It is filed as biochemical. A digest of the protocol:
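Readout is HTRF KinEASE-TK, using Sa-XL665 and cryptate antibody for 1 h at 22 °C, as percent of control between DMSO-only (100) and pre-quenched (0) reactions. The kinase reaction runs 30 min at 22 °C with 1 mM ATP and 250 nM biotinylated TK substrate, in HEPES pH 7.4 with MgCl2 and 2% DMSO.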
For orientation: TR-FRET usually uses a lanthanide donor and a delayed reading to cut background.

In data set [3] the target is EGFR (Homo sapiens (Human), UniProt P00533). In words: ErbB enzyme assay (CisBio HTRF KinEASE-TK), Assay 3. Type of data set: biochemical. In short, it runs like this: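 HTRF dual-wavelength read after 1 h detection; POC normalised to DMSO (100) and pre-quenched (0) controls, IC50 where 4-parameter curve crosses 50 POC. Reaction: 250 nM TK-substrate biotin, 1 mM ATP, pH 7.4 HEPES buffer with MgCl2, 30 min, 22 °C.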

In data set [4] the target is ErbB2 with Exon 20 YVMA insertion (HER2-YVMA) (Homo sapiens (Human), UniProt P04626, INS775YVMA). In words: Cellular phosphorylation assay, constitutive ErbB2 phosphorylation (Y1196) in engineered NIH 3T3 cells, Assay 4. Type of data set: cell-based. In short, it runs like this: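 In-cell Western in NIH 3T3 cells carrying ErbB2 exon 20 YVMA insertion, with no ligand stimulation. One hour compound exposure at 37 °C before fixation and anti-pY1196 plus GAPDH staining with dual-wavelength fluorescence. IC50 derived after GAPDH normalization.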
Sequence of ErbB2 with Exon 20 YVMA insertion (HER2-YVMA) (P04626 other isoform, or with tags, fused parts or gaps ins YVMA behind 775): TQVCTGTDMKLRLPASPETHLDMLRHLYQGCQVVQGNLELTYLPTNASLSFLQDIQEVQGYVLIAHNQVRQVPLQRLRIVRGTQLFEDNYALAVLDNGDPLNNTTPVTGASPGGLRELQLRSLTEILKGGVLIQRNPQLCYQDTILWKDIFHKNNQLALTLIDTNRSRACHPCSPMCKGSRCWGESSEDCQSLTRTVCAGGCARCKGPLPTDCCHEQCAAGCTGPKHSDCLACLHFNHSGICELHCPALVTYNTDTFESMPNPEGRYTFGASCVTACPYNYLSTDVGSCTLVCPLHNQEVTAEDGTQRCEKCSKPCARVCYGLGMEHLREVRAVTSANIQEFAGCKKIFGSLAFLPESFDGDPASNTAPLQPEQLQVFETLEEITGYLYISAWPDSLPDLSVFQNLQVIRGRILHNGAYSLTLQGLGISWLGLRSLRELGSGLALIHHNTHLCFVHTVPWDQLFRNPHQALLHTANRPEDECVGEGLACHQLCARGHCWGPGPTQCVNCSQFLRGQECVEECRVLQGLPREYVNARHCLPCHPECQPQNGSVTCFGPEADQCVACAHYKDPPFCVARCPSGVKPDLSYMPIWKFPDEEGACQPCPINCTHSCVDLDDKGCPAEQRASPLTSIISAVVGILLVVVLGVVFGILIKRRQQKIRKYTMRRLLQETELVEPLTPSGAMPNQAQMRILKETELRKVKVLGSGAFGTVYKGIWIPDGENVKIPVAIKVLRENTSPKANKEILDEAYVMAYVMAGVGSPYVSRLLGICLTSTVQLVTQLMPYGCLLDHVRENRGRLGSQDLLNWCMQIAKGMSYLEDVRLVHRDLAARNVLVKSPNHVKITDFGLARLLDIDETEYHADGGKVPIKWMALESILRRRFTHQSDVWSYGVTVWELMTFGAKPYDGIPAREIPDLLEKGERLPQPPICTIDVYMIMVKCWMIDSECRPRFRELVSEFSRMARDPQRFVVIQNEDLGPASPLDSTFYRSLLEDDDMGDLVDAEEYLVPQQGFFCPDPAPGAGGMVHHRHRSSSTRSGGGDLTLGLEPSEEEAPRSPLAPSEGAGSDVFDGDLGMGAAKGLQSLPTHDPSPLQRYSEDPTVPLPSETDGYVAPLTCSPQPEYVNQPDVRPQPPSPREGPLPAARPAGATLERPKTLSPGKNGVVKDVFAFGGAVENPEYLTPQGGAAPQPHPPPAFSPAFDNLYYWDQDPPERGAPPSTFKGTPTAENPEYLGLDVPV

For data set [5], the target named is EGFR wild type (EGFR WT) (Homo sapiens (Human), UniProt P00533). In words: Cellular phosphorylation assay, EGF-stimulated EGFR phosphorylation in engineered NIH 3T3 cells, Phospho-EGFR DuoSet IC ELISA, Assay 5. It is filed as cell-based. A digest of the protocol:
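Phospho-EGFR ELISA on lysates of engineered NIH 3T3 EGFR WT cells, IC50 derived from concentration curves. Cells plated at 20,000/well overnight, given compound dilutions 1 h at 37 °C, then rEGF 100 ng/ml for a further 10 min before lysis.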

The target in data set [6] is MDR1 (P-gp) (Homo sapiens (Human), UniProt P08183). Description: MDR1 transfected MDCKII canine Mdr1 knockout permeability/efflux, Assay 7. Particulars: dog, MDCK-MDR1.
Sequence of MDR1 (P-gp) (P08183 whole entry): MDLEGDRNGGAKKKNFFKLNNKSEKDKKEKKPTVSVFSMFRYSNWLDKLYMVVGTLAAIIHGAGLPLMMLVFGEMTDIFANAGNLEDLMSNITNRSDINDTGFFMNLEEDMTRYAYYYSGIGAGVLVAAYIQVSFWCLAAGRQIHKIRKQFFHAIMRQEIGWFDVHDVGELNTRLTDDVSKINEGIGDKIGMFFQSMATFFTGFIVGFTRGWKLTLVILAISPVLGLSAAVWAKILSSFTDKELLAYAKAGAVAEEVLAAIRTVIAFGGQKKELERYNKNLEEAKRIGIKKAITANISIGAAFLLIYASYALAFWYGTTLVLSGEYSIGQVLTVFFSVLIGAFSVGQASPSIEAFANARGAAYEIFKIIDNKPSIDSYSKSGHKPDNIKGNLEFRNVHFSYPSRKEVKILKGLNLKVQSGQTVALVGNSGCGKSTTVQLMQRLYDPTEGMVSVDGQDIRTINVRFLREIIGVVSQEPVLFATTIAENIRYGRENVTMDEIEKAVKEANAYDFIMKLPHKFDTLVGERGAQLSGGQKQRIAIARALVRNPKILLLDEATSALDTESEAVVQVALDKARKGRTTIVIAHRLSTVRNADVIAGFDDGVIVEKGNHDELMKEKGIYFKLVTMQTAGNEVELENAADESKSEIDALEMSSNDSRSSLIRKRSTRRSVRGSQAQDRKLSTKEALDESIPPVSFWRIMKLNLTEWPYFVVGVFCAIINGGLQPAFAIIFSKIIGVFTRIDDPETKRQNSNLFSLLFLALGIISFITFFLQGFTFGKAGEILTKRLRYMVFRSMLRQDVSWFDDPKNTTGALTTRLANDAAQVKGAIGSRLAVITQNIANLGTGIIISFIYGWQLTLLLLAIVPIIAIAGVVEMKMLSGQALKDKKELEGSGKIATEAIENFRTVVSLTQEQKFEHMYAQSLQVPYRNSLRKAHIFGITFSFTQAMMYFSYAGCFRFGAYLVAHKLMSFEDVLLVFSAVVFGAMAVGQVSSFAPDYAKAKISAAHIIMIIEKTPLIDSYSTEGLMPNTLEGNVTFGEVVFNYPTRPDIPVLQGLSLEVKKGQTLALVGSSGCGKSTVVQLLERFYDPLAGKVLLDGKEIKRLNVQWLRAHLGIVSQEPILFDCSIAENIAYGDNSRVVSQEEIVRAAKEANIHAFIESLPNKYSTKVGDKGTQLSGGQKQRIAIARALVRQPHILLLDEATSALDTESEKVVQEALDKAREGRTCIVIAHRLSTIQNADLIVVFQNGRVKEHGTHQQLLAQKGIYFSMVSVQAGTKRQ
Experimental: Both MDR1 transfected LLC-PK1 (Assay 6) and MDR1 transfected MDCKII canine Mdr1 knockout cells (Assay 7) were cultured and plated according to manufacturer's recommendations with the exception that the passage media for the MDR1 transfected LLC-PK1 cell line contained only 2% fetal bovine serum so as to extend passage time out to seven days.
Both positive and negative controls were used to assess functionality of P-gp or BCRP efflux in the assays. Stock solutions for assay controls and the test article were prepared in DMSO for final test concentration of 1 μM. Final organic concentration in the assay was 1%. All dosing solutions contained 10 μM lucifer yellow to monitor MDCKII cell monolayer integrity.
For the apical to basolateral determination (A to B), 75 μL of the test article in transport buffer were added to the apical side of the individual transwells and 250 μL of basolateral media, without compound or lucifer yellow, were added to each well. For the basolateral to apical determination (B to A), 250 μL of test article in transport buffer were added to each well and 75 μL transport buffer, without compound or lucifer yellow, were added to each transwell. All tests were performed in triplicate, and each compound was tested for both apical to basolateral and basolateral to apical transport. The plates were incubated for 2 hours on a Lab-Line Instruments Titer Orbital Shaker (VWR, West Chester, PA) at 50 rpm and 37° C. with 5% CO2. All culture plates were removed from the incubator, 50 μL of media were removed from the apical and basolateral portion of each well, and added to 150 μL of 1 μM labetalol in 2:1 acetonitrile (ACN): H2O, v/v.
The plates were read using a Molecular Devices (Sunnyvale, CA) Gemini Fluorometer to evaluate the lucifer yellow concentrations at excitation/emission wavelengths of 425/535 nm. These values were accepted when found to be below 2% for apical to basolateral and 5% basolateral to apical flux across the MDR1-transfected LLC-PK1 or BCRP-transfected MDCKII cell monolayers. The plates were sealed, and the contents of each well analyzed by LC MS/MS. The compound concentrations were determined from the ratio of the peak areas of the compound to the internal standard (labetalol) in comparison to the dosing solution.
A MDS Sciex API 4000 (Applied Biosystems, Foster City, CA) mass spectrometer was used for detection of the analytes in the ion spray positive mode. Analyte responses were measured by multiple reaction monitoring (“MRM”) of transitions unique to each compound (the protonated precursor ion and selected product ions for each test article and m/z 329 to m/z 162 for labetalol, the internal standard.
The total run time, including re-equilibration, for a single injection was 1.2 minutes. […] The total run time, including re-equilibration, for a single injection was 0.61 minutes.
An efflux ratio is calculated from the mean apical to basolateral (A-B) Papp data and basolateral to apical (B-A) Papp data: Efflux ratio=Papp(B−A)/Papp(A−B)

Read-outs that look alike come from different tables or passages of the source. Some results are limits rather than exact numbers.

Sequence of ErbB2 WT (P04626 23-1255): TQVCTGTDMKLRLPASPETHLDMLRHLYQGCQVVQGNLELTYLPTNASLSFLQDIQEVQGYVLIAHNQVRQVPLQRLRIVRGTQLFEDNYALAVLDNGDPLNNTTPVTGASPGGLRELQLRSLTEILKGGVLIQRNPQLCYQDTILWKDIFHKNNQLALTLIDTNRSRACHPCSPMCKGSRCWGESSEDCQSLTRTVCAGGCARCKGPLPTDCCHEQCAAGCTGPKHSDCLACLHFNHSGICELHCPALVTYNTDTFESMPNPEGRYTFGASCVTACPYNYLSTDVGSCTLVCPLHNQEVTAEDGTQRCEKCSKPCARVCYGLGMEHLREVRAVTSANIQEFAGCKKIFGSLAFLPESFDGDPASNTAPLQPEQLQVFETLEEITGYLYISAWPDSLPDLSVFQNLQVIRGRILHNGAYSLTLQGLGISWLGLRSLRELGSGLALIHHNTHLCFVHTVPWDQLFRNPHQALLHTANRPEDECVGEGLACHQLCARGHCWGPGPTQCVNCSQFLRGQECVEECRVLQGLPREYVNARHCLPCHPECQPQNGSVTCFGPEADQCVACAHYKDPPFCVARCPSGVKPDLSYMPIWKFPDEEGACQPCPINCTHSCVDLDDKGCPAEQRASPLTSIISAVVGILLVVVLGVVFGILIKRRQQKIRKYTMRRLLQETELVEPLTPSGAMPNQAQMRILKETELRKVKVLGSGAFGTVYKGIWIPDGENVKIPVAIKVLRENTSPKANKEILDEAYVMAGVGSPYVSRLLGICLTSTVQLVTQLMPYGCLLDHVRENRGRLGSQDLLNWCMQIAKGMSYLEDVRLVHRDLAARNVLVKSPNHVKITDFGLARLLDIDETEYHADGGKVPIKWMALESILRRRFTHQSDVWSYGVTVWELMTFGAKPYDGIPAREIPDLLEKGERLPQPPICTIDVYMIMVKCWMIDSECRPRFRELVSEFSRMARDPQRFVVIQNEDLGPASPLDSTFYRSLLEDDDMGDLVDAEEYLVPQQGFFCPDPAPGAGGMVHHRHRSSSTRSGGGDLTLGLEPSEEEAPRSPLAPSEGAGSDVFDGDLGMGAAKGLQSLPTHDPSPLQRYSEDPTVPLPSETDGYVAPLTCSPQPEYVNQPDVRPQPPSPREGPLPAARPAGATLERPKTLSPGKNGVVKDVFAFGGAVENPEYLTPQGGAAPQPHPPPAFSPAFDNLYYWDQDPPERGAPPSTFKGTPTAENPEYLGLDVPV
Sequence of ErbB2 insYVMA (HER2-YVMA, SEQ ID NO: 2) (P04626 with tags, fused parts or gaps INS775YVMA/P1170A limits assumed): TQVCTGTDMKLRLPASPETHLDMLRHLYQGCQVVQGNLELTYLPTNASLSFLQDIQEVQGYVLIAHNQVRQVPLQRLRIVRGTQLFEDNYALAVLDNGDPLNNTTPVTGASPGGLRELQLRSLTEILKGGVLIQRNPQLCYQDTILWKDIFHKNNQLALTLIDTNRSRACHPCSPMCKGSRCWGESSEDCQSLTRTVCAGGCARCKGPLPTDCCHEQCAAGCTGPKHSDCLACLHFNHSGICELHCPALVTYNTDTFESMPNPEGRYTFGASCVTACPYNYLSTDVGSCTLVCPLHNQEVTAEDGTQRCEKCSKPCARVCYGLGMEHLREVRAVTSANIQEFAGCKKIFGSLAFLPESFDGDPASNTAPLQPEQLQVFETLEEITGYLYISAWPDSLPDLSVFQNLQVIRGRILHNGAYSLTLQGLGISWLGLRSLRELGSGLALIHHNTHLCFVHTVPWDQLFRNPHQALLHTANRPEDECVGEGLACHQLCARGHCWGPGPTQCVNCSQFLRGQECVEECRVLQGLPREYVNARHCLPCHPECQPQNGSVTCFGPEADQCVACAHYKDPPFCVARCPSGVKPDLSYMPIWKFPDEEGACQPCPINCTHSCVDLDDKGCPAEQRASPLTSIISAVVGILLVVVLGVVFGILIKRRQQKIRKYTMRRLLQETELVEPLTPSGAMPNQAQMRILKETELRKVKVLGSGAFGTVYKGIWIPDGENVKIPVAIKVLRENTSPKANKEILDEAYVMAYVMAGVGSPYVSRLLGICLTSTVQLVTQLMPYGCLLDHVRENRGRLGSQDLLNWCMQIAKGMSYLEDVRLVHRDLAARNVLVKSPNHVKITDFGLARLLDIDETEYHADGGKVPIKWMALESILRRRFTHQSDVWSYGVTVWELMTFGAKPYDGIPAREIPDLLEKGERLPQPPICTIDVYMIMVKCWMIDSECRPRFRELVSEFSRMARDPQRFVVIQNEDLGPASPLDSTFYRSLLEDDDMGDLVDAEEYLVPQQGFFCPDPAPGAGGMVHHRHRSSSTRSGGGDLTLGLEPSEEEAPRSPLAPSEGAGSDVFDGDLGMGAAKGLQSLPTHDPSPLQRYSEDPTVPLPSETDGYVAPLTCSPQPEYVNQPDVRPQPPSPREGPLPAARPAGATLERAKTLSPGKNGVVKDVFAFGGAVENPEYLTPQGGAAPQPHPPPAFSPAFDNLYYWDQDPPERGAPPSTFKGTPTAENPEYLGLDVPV

Take `Cc1c(Oc2ccc3c(c2)ncn3C)ccc(Nc2ncnc3cnc(N4CC[C@](C)(O)C4)nc23)c1F` [Example 97, (S)-1-(8-((2-fluoro-3-methyl-4-((1-methyl-1H-benzo[d]imidazol-5-yl)oxy)phenyl)amino)pyrimido[5,4-d]pyrimidin-2-yl)-3-methylpyrrolidin-3-ol]: the IC50 was 14.2 nM in data set [1] (read-out: Assay 1 IC50); 31 nM in data set [2]; no less than 10000 nM in data set [3]; 47.5 nM in data set [4]; no less than 5000 nM in data set [5]. For the same molecule, the efflux ratio at 2 h, 1 μM in data set [6] worked out at 2.

As for `CN(CCC(C)(C)O)c1ncc2ncnc(Nc3ccc(Oc4ccn5ncnc5c4)c(Cl)c3)c2n1` [Example 101, 4-((8-((4-([1,2,4]triazolo[1,5-a]pyridin-7-yloxy)-3-chlorophenyl)amino)pyrimido[5,4-d]pyrimidin-2-yl)(methyl)amino)-2-methylbutan-2-ol], the IC50 is 15.4 nM in data set [1] (read-out: Assay 1 IC50); 14.7 nM in data set [2]; no less than 10000 nM in data set [3]; 8.2 nM in data set [4]; no less than 5000 nM in data set [5]. For the same molecule, the efflux ratio at 2 h, 1 μM in data set [6] came to 1.5.

Take `Cn1cnc2cc(Oc3ccc(Nc4ncnc5cnc(N6CCC6)nc45)cc3Cl)ccc21.O=C(O)C(F)(F)F` [Example 148, 6-(azetidin-1-yl)-N-(3-chloro-4-((1-methyl-1H-benzo[d]imidazol-5-yl)oxy)phenyl)pyrimido[5,4-d]pyrimidin-4-amine 2,2,2-trifluoroacetate]: the half-maximal inhibitory concentration (IC50) is 24.3 nM in data set [1] (Assay 1 IC50 (nM)); 34 nM in data set [2]; no less than 10000 nM in data set [3]; 13 nM in data set [4]; no less than 5000 nM in data set [5]. Further, the efflux ratio at 2 h, 1 μM in data set [6] was 1.3.

As to `Cn1cnc2cc(Oc3ccc(Nc4ncnc5cnc(N6CC7C8CCC(O8)C7C6)nc45)cc3Cl)ccc21.O=C(O)C(F)(F)F` (stereo not drawn) [Example 149, N-(3-chloro-4-((1-methyl-1H-benzo[d]imidazol-5-yl)oxy)phenyl)-6-(octahydro-2H-4,7-epoxyisoindol-2-yl)pyrimido[5,4-d]pyrimidin-4-amine], the concentration for half-maximal inhibition (IC50) is 99 nM in data set [1] (Assay 1 IC50 (nM)); 102 nM in data set [2]; no less than 10000 nM in data set [3]; 26.5 nM in data set [4]; no less than 5000 nM in data set [5]. Besides, the efflux ratio at 2 h, 1 μM in data set [6] is 1.

`Cn1cnc2cc(Oc3ccc(Nc4ncnc5cnc(N6CCN7CCOC[C@H]7C6)nc45)cc3Cl)ccc21.O=C(O)C(F)(F)F.O=C(O)C(F)(F)F` [Example 150, (R)—N-(3-chloro-4-((1-methyl-1H-benzo[d]imidazol-5-yl)oxy)phenyl)-6-(hexahydropyrazino[2,1-c][1,4]oxazin-8(1H)-yl)pyrimido[5,4-d]pyrimidin-4-amine bis(2,2,2-trifluoroacetate)]: the IC50 in data set [1] (Assay 1 IC50 (nM)) is 32 nM; in data set [2], 22.3 nM; in data set [3], no less than 10000 nM; in data set [4], 9.1 nM; in data set [5] it was no less than 5000 nM. The efflux ratio at 2 h, 1 μM in data set [6] turned out to be 2.2.

Take `Cn1cnc2cc(Oc3ccc(Nc4ncnc5cnc(N6CCN7CCOC[C@@H]7C6)nc45)cc3Cl)ccc21.O=C(O)C(F)(F)F.O=C(O)C(F)(F)F` [Example 151, (S)—N-(3-chloro-4-((1-methyl-1H-benzo[d]imidazol-5-yl)oxy)phenyl)-6-(hexahydropyrazino[2,1-c][1,4]oxazin-8(1H)-yl)pyrimido[5,4-d]pyrimidin-4-amine bis(2,2,2-trifluoroacetate)]: the concentration for half-maximal inhibition (IC50) is 24.6 nM in data set [1] (Assay 1 IC50 (nM)); 61.4 nM in data set [2]; no less than 10000 nM in data set [3]; 18.8 nM in data set [4]; no less than 5000 nM in data set [5]. In addition, the efflux ratio at 2 h, 1 μM in data set [6] was 1.2.

As for `Cc1cc(Nc2ncnc3cnc(N4CC[C@H](F)[C@@H](O)C4)nc23)ccc1Oc1ccc2c(c1)ncn2C` [Example 162, (3S,4S)-4-fluoro-1-(8-((3-methyl-4-((1-methyl-1H-benzo[d]imidazol-5-yl)oxy)phenyl)amino)pyrimido[5,4-d]pyrimidin-2-yl)piperidin-3-ol], the IC50 in data set [1] (read-out: Assay 1 IC50) was 19.4 nM; in data set [2], 31.6 nM; in data set [3], 7360 nM; in data set [4] it was 36.4 nM; in data set [5] it was no less than 5000 nM. Also, in data set [6], the efflux ratio at 2 h, 1 μM was 2.8.

Take `Cc1cc(Nc2ncnc3cnc(N(C)[C@H]4C[C@@](C)(O)C4)nc23)ccc1Oc1ccc2c(c1)ncn2C` [Example 165, (1s, 3s)-1-methyl-3-(methyl(8-((3-methyl-4-((1-methyl-1H-benzo[d]imidazol-5-yl)oxy)phenyl)amino)pyrimido[5,4-d]pyrimidin-2-yl)amino)cyclobutan-1-ol]: the IC50 in data set [1] (read-out: Assay 1 IC50) was 7.5 nM; in data set [2] it was 5.6 nM; in data set [3] it was 216 nM; in data set [4], 11.4 nM; in data set [5], no less than 5000 nM. The efflux ratio at 2 h, 1 μM in data set [6] was found to be 2.1.

As to `Cc1cc(Nc2ncnc3cnc(N4C[C@@H](C)[C@H](O)C4)nc23)ccc1Oc1ccc2c(c1)ncn2C` [Example 167, (3S,4R)-4-methyl-1-(8-((3-methyl-4-((1-methyl-1H-benzo[d]imidazol-5-yl)oxy)phenyl)amino)pyrimido[5,4-d]pyrimidin-2-yl)pyrrolidin-3-ol], the IC50 in data set [1] (read-out: Assay 1 IC50) is 17.7 nM; in data set [2], 34.6 nM; in data set [3], 9050 nM; in data set [4], 24.2 nM; in data set [5], no less than 5000 nM. In addition, the efflux ratio at 2 h, 1 μM in data set [6] came out at 2.8.

`Cc1cc(Nc2ncnc3cnc(N4CC[C@@H](O)C4)nc23)ccc1Oc1ccc2c(c1)ncn2C` [Example 169, (R)-1-(8-((3-methyl-4-((1-methyl-1H-benzo[d]imidazol-5-yl)oxy)phenyl)amino)pyrimido[5,4-d]pyrimidin-2-yl)pyrrolidin-3-ol]: the IC50 in data set [1] (read-out: Assay 1 IC50) is 8.5 nM; in data set [2], 11.2 nM; in data set [3], 1630 nM; in data set [4], 4.7 nM; in data set [5], no less than 5000 nM. Also, the efflux ratio at 2 h, 1 μM in data set [6] was found to be 3.6.

In the case of `Cc1cc(Nc2ncnc3cnc(N4CC[C@H](O)C4)nc23)ccc1Oc1ccc2c(c1)ncn2C` [Example 174, (S)-1-(8-((3-methyl-4-((1-methyl-1H-benzo[d]imidazol-5-yl)oxy)phenyl)amino)pyrimido[5,4-d]pyrimidin-2-yl)pyrrolidin-3-ol], the IC50 in data set [1] (read-out: Assay 1 IC50) is 11.5 nM; in data set [2], 31.4 nM; in data set [3], 2770 nM; in data set [4], 8 nM; in data set [5] it was no less than 5000 nM. Further, the efflux ratio at 2 h, 1 μM in data set [6] turned out to be 3.1.

For `Cc1cc(Nc2ncnc3cnc(N4CCC(CC#N)C4)nc23)ccc1Oc1ccc2c(c1)ncn2C` (stereo not drawn) [Example 192, 2-(1-(8-((3-methyl-4-((1-methyl-1H-benzo[d]imidazol-5-yl)oxy)phenyl)amino)pyrimido[5,4-d]pyrimidin-2-yl)pyrrolidin-3-yl)acetonitrile], the IC50 in data set [1] (read-out: Assay 1 IC50) was 19.1 nM; in data set [2], 44.8 nM; in data set [3] it was no less than 10000 nM; in data set [4] it was 13.1 nM; in data set [5], no less than 5000 nM. The efflux ratio at 2 h, 1 μM in data set [6] is 1.6.

Consider `Cc1cc(Nc2ncnc3cnc(N4CCNC(=O)C4)nc23)ccc1Oc1ccc2c(c1)ncn2C` [Example 198, 4-(8-((3-methyl-4-((1-methyl-1H-benzo[d]imidazol-5-yl)oxy)phenyl)amino)pyrimido[5,4-d]pyrimidin-2-yl)piperazin-2-one], for which the 50% inhibitory concentration (IC50) in data set [1] (read-out: Assay 1 IC50) is 20 nM; in data set [2], 21.9 nM; in data set [3], 3300 nM; in data set [4], 37.6 nM; in data set [5] it was no less than 5000 nM. For the same molecule, the efflux ratio at 2 h, 1 μM in data set [6] worked out at 10.7.

For `Cc1cc(Nc2ncnc3cnc(N4CC5(CC(O)C5)C4)nc23)ccc1Oc1ccc2c(c1)ncn2C` [Example 213, 2-(8-((3-methyl-4-((1-methyl-1H-benzo[d]imidazol-5-yl)oxy)phenyl)amino)pyrimido[5,4-d]pyrimidin-2-yl)-2-azaspiro[3.3]heptan-6-ol], the IC50 in data set [1] (read-out: Assay 1 IC50) is 19.7 nM; in data set [2], 33.9 nM; in data set [3], no less than 10000 nM; in data set [4] it was 34.1 nM; in data set [5] it was no less than 5000 nM. In addition, the efflux ratio at 2 h, 1 μM in data set [6] worked out at 2.4.

For the molecule `Cc1cc(Nc2ncnc3cnc(N[C@@H]4CNCC4(F)F)nc23)ccc1Oc1ccc2c(c1)ncn2C` [Example 297], the IC50 is 17.6 nM in data set [1] (read-out: Assay 1 IC50); 40 nM in data set [2]; 3320 nM in data set [3]; 29.4 nM in data set [4]; no less than 5000 nM in data set [5]. Also, the efflux ratio at 2 h, 1 μM in data set [6] worked out at 3.2.

One may read the IC50 as the concentration that gives 50% inhibition. For orientation: efflux ratio means the permeability from basolateral to apical divided by that in the opposite direction, in the common usage.
